Measured values reported in patent publication US20100160351A1, “PHARMACEUTICAL COMPOSITIONS AND METHODS FOR TREATING HYPERURICEMIA AND RELATED DISORDERS” (NUON THERAPEUTICS, INC., priority 2008, published 2010).

Tested on: serum uric acid (sUA) levels in hyperuricemic patients
Experiment: PRESTO study: change in serum uric acid in hyperuricemic patients (baseline >=8 mg/dL), Tranilast twice daily for 1 or 3 months
Assay type: in vivo, human
Method: The PRESTO (Prevention of Restenosis with Tranilast and its Outcomes) study was a multicenter study of ˜11,500 patients undergoing percutaneous transluminal coronary revascularization (PTCR) with or without stenting for single or multiple vessels over a 9-month period. The study compared the composite clinical event rate of death, myocardial infarction, or need for ischemia-driven target vessel revascularization in patients treated with Tranilast (300 and 450 mg twice daily) for 1 or 3 months versus placebo. Description of the study protocol and patient population can be found in Holmes et al., The PRESTO (Prevention of Restenosis with Tranilast and its Outcomes) protocol: A double-blind, placebo-controlled trial, Am Heart J 2000; 139:23-31; and Holmes et al., Results of Prevention of REStenosis with Tranilast and its Outcomes (PRESTO) Trial, Circulation. 2002; 106:1243, both of which are incorporated by reference herein in their entirety.
Gout was a contraindication for patient enrollment in the PRESTO trial. Nevertheless, 1100 patients enrolled in the trial were identified with baseline hyperuricemia defined as initial serum uric acid (sUA) levels greater than or equal to 7 mg/dL. Of these, approximately 300 participants had baseline serum uric acid levels greater than or equal to 8 mg/dL. […] As indicated in FIG. 1 and Table 4, some patients were treated with placebo, some patients were treated with Tranilast for 4 weeks followed by placebo, and some patients were treated with Tranilast for 12 weeks.

[1] = 1M TRAN 300 mg/2M PLACEBO, Follow-Up
[2] = 1M TRAN 300 mg/2M PLACEBO, Post-PTCR
[3] = 1M TRAN 300 mg/2M PLACEBO, Week 1
[4] = 1M TRAN 300 mg/2M PLACEBO, Week 2
[5] = 1M TRAN 300 mg/2M PLACEBO, Week 3
[6] = 1M TRAN 300 mg/2M PLACEBO, Week 4
[7] = 1M TRAN 300 mg/2M PLACEBO, Week 6
[8] = 1M TRAN 300 mg/2M PLACEBO, Week 8
[9] = 1M TRAN 300 mg/2M PLACEBO, Week 10
[10] = 1M TRAN 300 mg/2M PLACEBO, Week 12
[11] = 1M TRAN 450 mg/2M PLACEBO, Follow-Up
[12] = 1M TRAN 450 mg/2M PLACEBO, Post-PTCR
[13] = 1M TRAN 450 mg/2M PLACEBO, Week 1
[14] = 1M TRAN 450 mg/2M PLACEBO, Week 2
[15] = 1M TRAN 450 mg/2M PLACEBO, Week 3
[16] = 1M TRAN 450 mg/2M PLACEBO, Week 4
[17] = 1M TRAN 450 mg/2M PLACEBO, Week 6
[18] = 1M TRAN 450 mg/2M PLACEBO, Week 8
[19] = 1M TRAN 450 mg/2M PLACEBO, Week 10
[20] = 1M TRAN 450 mg/2M PLACEBO, Week 12

## COc1ccc(/C=C/C(=O)Nc2ccccc2C(=O)O)cc1OC [Tranilast, 2-[[3-(3,4-dimethoxyphenyl)-1-oxo-2-propenyl]amino]benzoic acid]
[1]
  Change from Baseline in Uric Acid, Max: 2.00 mg/dL
  Change from Baseline in Uric Acid, Mean (SD): −0.64 (1.351) mg/dL
  Change from Baseline in Uric Acid, Median: -0.86 mg/dL
  Change from Baseline in Uric Acid, Min: -3.30 mg/dL
[2]
  Change from Baseline in Uric Acid, Max: 2.03 mg/dL
  Change from Baseline in Uric Acid, Mean (SD): −1.33 (1.220) mg/dL
  Change from Baseline in Uric Acid, Median: -1.30 mg/dL
  Change from Baseline in Uric Acid, Min: -4.54 mg/dL
[3]
  Change from Baseline in Uric Acid, Max: 2.70 mg/dL
  Change from Baseline in Uric Acid, Mean (SD): −2.31 (1.839) mg/dL
  Change from Baseline in Uric Acid, Median: -2.51 mg/dL
  Change from Baseline in Uric Acid, Min: -6.05 mg/dL
[4]
  Change from Baseline in Uric Acid, Max: 1.80 mg/dL
  Change from Baseline in Uric Acid, Mean (SD): −2.61 (2.149) mg/dL
  Change from Baseline in Uric Acid, Median: -3.00 mg/dL
  Change from Baseline in Uric Acid, Min: -7.05 mg/dL
[5]
  Change from Baseline in Uric Acid, Max: 3.50 mg/dL
  Change from Baseline in Uric Acid, Mean (SD): −2.43 (2.143) mg/dL
  Change from Baseline in Uric Acid, Median: -2.70 mg/dL
  Change from Baseline in Uric Acid, Min: -6.61 mg/dL
[6]
  Change from Baseline in Uric Acid, Max: 2.60 mg/dL
  Change from Baseline in Uric Acid, Mean (SD): −2.30 (1.953) mg/dL
  Change from Baseline in Uric Acid, Median: -2.40 mg/dL
  Change from Baseline in Uric Acid, Min: -7.40 mg/dL
[7]
  Change from Baseline in Uric Acid, Max: 2.40 mg/dL
  Change from Baseline in Uric Acid, Mean (SD): −0.82 (1.416) mg/dL
  Change from Baseline in Uric Acid, Median: -0.70 mg/dL
  Change from Baseline in Uric Acid, Min: -5.21 mg/dL
[8]
  Change from Baseline in Uric Acid, Max: 1.55 mg/dL
  Change from Baseline in Uric Acid, Mean (SD): −0.63 (1.371) mg/dL
  Change from Baseline in Uric Acid, Median: -0.70 mg/dL
  Change from Baseline in Uric Acid, Min: -4.54 mg/dL
[9]
  Change from Baseline in Uric Acid, Max: 2.10 mg/dL
  Change from Baseline in Uric Acid, Mean (SD): −0.79 (1.195) mg/dL
  Change from Baseline in Uric Acid, Median: -0.83 mg/dL
  Change from Baseline in Uric Acid, Min: -3.53 mg/dL
[10]
  Change from Baseline in Uric Acid, Max: 1.50 mg/dL
  Change from Baseline in Uric Acid, Mean (SD): −0.75 (1.500) mg/dL
  Change from Baseline in Uric Acid, Median: -0.52 mg/dL
  Change from Baseline in Uric Acid, Min: -4.90 mg/dL
[11]
  Change from Baseline in Uric Acid, Max: 1.20 mg/dL
  Change from Baseline in Uric Acid, Mean (SD): −0.53 (1.249) mg/dL
  Change from Baseline in Uric Acid, Median: -0.40 mg/dL
  Change from Baseline in Uric Acid, Min: -4.40 mg/dL
[12]
  Change from Baseline in Uric Acid, Max: 0.70 mg/dL
  Change from Baseline in Uric Acid, Mean (SD): −2.00 (1.454) mg/dL
  Change from Baseline in Uric Acid, Median: -1.96 mg/dL
  Change from Baseline in Uric Acid, Min: -5.21 mg/dL
[13]
  Change from Baseline in Uric Acid, Max: 2.00 mg/dL
  Change from Baseline in Uric Acid, Mean (SD): −3.66 (1.902) mg/dL
  Change from Baseline in Uric Acid, Median: -3.95 mg/dL
  Change from Baseline in Uric Acid, Min: -8.00 mg/dL
[14]
  Change from Baseline in Uric Acid, Max: 1.00 mg/dL
  Change from Baseline in Uric Acid, Mean (SD): −3.43 (2.176) mg/dL
  Change from Baseline in Uric Acid, Median: -3.50 mg/dL
  Change from Baseline in Uric Acid, Min: -8.40 mg/dL
[15]
  Change from Baseline in Uric Acid, Max: -0.70 mg/dL
  Change from Baseline in Uric Acid, Mean (SD): −4.19 (1.978) mg/dL
  Change from Baseline in Uric Acid, Median: -4.27 mg/dL
  Change from Baseline in Uric Acid, Min: -7.90 mg/dL
[16]
  Change from Baseline in Uric Acid, Max: 1.00 mg/dL
  Change from Baseline in Uric Acid, Mean (SD): −3.52 (2.127) mg/dL
  Change from Baseline in Uric Acid, Median: -4.03 mg/dL
  Change from Baseline in Uric Acid, Min: -7.65 mg/dL
[17]
  Change from Baseline in Uric Acid, Max: 2.50 mg/dL
  Change from Baseline in Uric Acid, Mean (SD): −0.29 (1.188) mg/dL
  Change from Baseline in Uric Acid, Median: -0.30 mg/dL
  Change from Baseline in Uric Acid, Min: -3.20 mg/dL
[18]
  Change from Baseline in Uric Acid, Max: 3.60 mg/dL
  Change from Baseline in Uric Acid, Mean (SD): −0.49 (2.142) mg/dL
  Change from Baseline in Uric Acid, Median: -0.10 mg/dL
  Change from Baseline in Uric Acid, Min: -9.70 mg/dL
[19]
  Change from Baseline in Uric Acid, Max: 4.60 mg/dL
  Change from Baseline in Uric Acid, Mean (SD): −0.46 (1.494) mg/dL
  Change from Baseline in Uric Acid, Median: -0.38 mg/dL
  Change from Baseline in Uric Acid, Min: -4.40 mg/dL
[20]
  Change from Baseline in Uric Acid, Max: 2.70 mg/dL
  Change from Baseline in Uric Acid, Mean (SD): −0.56 (1.298) mg/dL
  Change from Baseline in Uric Acid, Median: -0.34 mg/dL
  Change from Baseline in Uric Acid, Min: -3.50 mg/dL
